The nature of data set [1]: OPTIMA II: mitomycin plasma concentrations. It is filed as in vivo, human.
In a further data set the test system is LG NMIBC. Particulars: dose-intensive administration as primary therapy for LG NMIBC; cited from earlier work.
[2] abbreviates: human, plasma, other: instillation, read-out: Mitomycin plasma concentration, mean (standard deviation).

Each structure is given as a SMILES string.

Consider `CO[C@@]12[C@H](COC(N)=O)C3=C(C(=O)C(C)=C(N)C3=O)N1C[C@@H]1N[C@@H]12` [Mitomycin], for which the “Mitomycin plasma concentration, mean (standard deviation)” value in data set [1] (Pre-instillation, 6 patients, UGN-102) amounted to 0 ng/mL. The AUC in data set [1] (human, plasma, other: instillation, read-out: Concentration-time Curve (AUC) - Mean (standard deviation)) stood at 5.69 ng·h/mL. Moreover, in data set [1] (setting [2]), the concentration at 0.5 h amounted to 0.75 ng/mL, the concentration at 1 h is 0.6 ng/mL, the concentration at 2 h is 0.34 ng/mL and the concentration at 3 h was determined as 1.88 ng/mL. For the same molecule, in data set [1] (setting [2]), the concentration at 4 h amounted to 1.93 ng/mL, the concentration at 5 h amounted to 0.57 ng/mL and the concentration at 6 h is 0.32 ng/mL. Moreover, the Cmax in data set [1] (human, plasma, other: intravesical instillation (via urethral catheter), read-out: Concentration (Cmax)) was 2.27 ng/mL. For the same molecule, the CR rates in the data set with LG NMIBC was 50-60%.

The values above are taken from patent publication US20250032409A1, “TREATMENT OF LOW-GRADE INTERMEDIATE-RISK NON-MUSCLE-INVASIVE BLADDER CANCER WITH A THERMALLY GELLING PHARMACEUTICAL COMPOSITION CONTAINING MITOMYCIN” (priority 2023, published 2025).
